Assay results as given in patent publication US9738612B2, “Methylacryloyl benzimidazolone derivative and anti-tumour use thereof” (SHANGHAI NATURE STANDARD R&D AND BIOTECH CO., LTD, priority 2014, dated 2017).

Experiments:
Test in all cases: Tumor-associated kinase inhibition test
Assay type in all cases: biochemical
Conditions in all cases: read-out: Inhibitory rate (%)
DYRK2(h) = target: T1, DYRK2(h) (Homo sapiens, UniProt Q92630)
T1 construct: purchased Eurofins Pharma Discovery Services UK Limited (contract testing)
Source text: (§1) Eurofins Pharma Discovery Services UK Limited completed and reported this experiment.

PI3KC2α(h) = target: T2, PI3KC2α(h) (Homo sapiens, UniProt O00443)
T2 construct: purchased Eurofins Pharma Discovery Services UK Limited (contract assay)
Source text: as §1

Fyn(h) = target: T3, Fyn(h) (Homo sapiens, UniProt P06241)
T3 construct: purchased Eurofins Pharma Discovery Services UK Limited (contract testing)
Source text: as §1

CHK2(h) = target: T4, CHK2(h) (Homo sapiens, UniProt O96017)
T4 construct: purchased Eurofins Pharma Discovery Services UK Limited (contract assay service)
Source text: as §1

Pim-1(h) = target: T5, Pim-1(h) (Homo sapiens, UniProt P11309)
T5 construct: purchased Eurofins Pharma Discovery Services UK Limited
Source text: as §1

PKCβII(h) = target: T6, PKCβII(h) (Homo sapiens, UniProt P05771)
T6 construct: purchased Eurofins Pharma Discovery Services UK Limited
Source text: as §1

PDK1(h) = target: T7, PDK1(h) (Homo sapiens, UniProt O15530)
T7 construct: purchased Eurofins Pharma Discovery Services UK Limited
Source text: as §1

NEK2(h) = target: T8, NEK2(h) (Homo sapiens, UniProt P51955)
T8 construct: purchased Eurofins Pharma Discovery Services UK Limited
Source text: as §1

PKD2(h) = target: T9, PKD2(h) (Homo sapiens, UniProt Q9BZL6)
T9 construct: purchased Eurofins Pharma Discovery Services UK Limited
Source text: as §1

PIP4K2α(h) = target: T10, PIP4K2α(h) (Homo sapiens, UniProt P48426)
T10 construct: purchased Eurofins Pharma Discovery Services UK Limited (contract assay)
Source text: as §1

PDGFRβ(h) = target: T11, PDGFRβ(h) (Homo sapiens, UniProt P09619)
T11 construct: purchased Eurofins Pharma Discovery Services UK Limited
Source text: as §1

CaMKI(h) = target: T12, CaMKI(h) (Homo sapiens, UniProt Q14012)
T12 construct: purchased Eurofins Pharma Discovery Services UK Limited (contract assay service)
Source text: as §1

Ret(h) = target: T13, Ret(h) (Homo sapiens, UniProt P07949)
T13 construct: purchased Eurofins Pharma Discovery Services UK Limited
Source text: as §1

CDK2/cyclinE(h) = target: T14, CDK2/cyclinE(h) (Homo sapiens, UniProt P24941)
T14 construct: purchased Eurofins Pharma Discovery Services UK Limited (contract assay service)
Source text: as §1

Fms(h) = target: T15, Fms(h) (Homo sapiens, UniProt P07333)
T15 construct: purchased Eurofins Pharma Discovery Services UK Limited (contract testing)
Source text: as §1

FAK(h) = target: T16, FAK(h) (Homo sapiens, UniProt Q05397)
T16 construct: purchased Eurofins Pharma Discovery Services UK Limited (contract testing)
Source text: as §1

cKit(h) = target: T17, cKit(h) (Homo sapiens, UniProt P10721)
T17 construct: purchased Eurofins Pharma Discovery Services UK Limited (contract testing)
Source text: as §1

PKCδ(h) = target: T18, PKCδ(h) (Homo sapiens, UniProt Q05655)
T18 construct: purchased Eurofins Pharma Discovery Services UK Limited
Source text: as §1

CSK(h) = target: T19, CSK(h) (Homo sapiens, UniProt P41240)
T19 construct: purchased Eurofins Pharma Discovery Services UK Limited (contract testing)
Source text: as §1

Blk(h) = target: T20, Blk(h) (Homo sapiens, UniProt P51451)
T20 construct: purchased Eurofins Pharma Discovery Services UK Limited (contract assay service)
Source text: as §1

[1] = target: T21, PI3Kinase(p110α(H1047R)/p85α)(h) (Homo sapiens, UniProt P42336, H1047R)
T21 construct: purchased Eurofins Pharma Discovery Services UK Limited (contract assay)
Source text: as §1

PI3Kinase(p120γ)(h) = target: T22, PI3Kinase(p120γ)(h) (Homo sapiens, UniProt P48736)
T22 construct: purchased Eurofins Pharma Discovery Services UK Limited (contract assay)
Source text: as §1

CK2(h) = target: T23, CK2(h) (Homo sapiens, UniProt P68400)
T23 construct: purchased Eurofins Pharma Discovery Services UK Limited (contract testing)
Source text: as §1

CDK7/cyclinH/MAT1(h) = target: T24, CDK7/cyclinH/MAT1(h) (Homo sapiens, UniProt P50613)
T24 construct: purchased Eurofins Pharma Discovery Services UK Limited (contract assay service)
Source text: as §1

Rsk1(h) = target: T25, Rsk1(h) (Homo sapiens, UniProt Q15418)
T25 construct: purchased Eurofins Pharma Discovery Services UK Limited
Source text: as §1

MEK1(h) = target: T26, MEK1(h) (Homo sapiens, UniProt Q02750)
T26 construct: purchased Eurofins Pharma Discovery Services UK Limited
Source text: as §1

IGF-1R(h), activated = target: T27, IGF-1R(h), activated (Homo sapiens, UniProt P08069)
T27 construct: purchased Eurofins Pharma Discovery Services UK Limited (contract testing)
Source text: as §1

ROCK-I(h) = target: T28, ROCK-I(h) (Homo sapiens, UniProt Q13464)
T28 construct: purchased Eurofins Pharma Discovery Services UK Limited
Source text: as §1

PI3KC2γ(h) = target: T29, PI3KC2γ(h) (Homo sapiens, UniProt O75747)
T29 construct: purchased Eurofins Pharma Discovery Services UK Limited (contract assay)
Source text: as §1

PI3Kinase(p110α/p85α)(h) = target: T30, PI3Kinase(p110α/p85α)(h) (Homo sapiens, UniProt P42336)
T30 construct: purchased Eurofins Pharma Discovery Services UK Limited (contract assay)
Source text: as §1

PKCι(h) = target: T31, PKCι(h) (Homo sapiens, UniProt P41743)
T31 construct: purchased Eurofins Pharma Discovery Services UK Limited
Source text: as §1

CDK2/cyclinA(h) = target: T32, CDK2/cyclinA(h) (Homo sapiens, UniProt P24941)
T32 construct: purchased Eurofins Pharma Discovery Services UK Limited (contract assay service)
Source text: as §1

CHK1(h) = target: T33, CHK1(h) (Homo sapiens, UniProt O14757)
T33 construct: purchased Eurofins Pharma Discovery Services UK Limited (contract assay service)
Source text: as §1

c-RAF(h) = target: T34, c-RAF(h) (Homo sapiens, UniProt P04049)
T34 construct: purchased Eurofins Pharma Discovery Services UK Limited (contract testing)
Source text: as §1

Lck(h)activated = target: T35, Lck(h)activated (Homo sapiens, UniProt P06239)
T35 construct: purchased Eurofins Pharma Discovery Services UK Limited
Source text: as §1

EGFR(h) = target: T36, EGFR(h) (Homo sapiens, UniProt P00533)
T36 construct: purchased Eurofins Pharma Discovery Services UK Limited (contract testing)
Source text: as §1

Rsk3(h) = target: T37, Rsk3(h) (Homo sapiens, UniProt Q15349)
T37 construct: purchased Eurofins Pharma Discovery Services UK Limited
Source text: as §1

B-Raf(V599E)(h) = target: T38, B-Raf(V599E)(h) (Homo sapiens, UniProt P15056, V600E)
T38 construct: purchased Eurofins Pharma Discovery Services UK Limited (contract assay service)
Source text: as §1

CDK6/cyclinD3(h) = target: T39, CDK6/cyclinD3(h) (Homo sapiens, UniProt Q00534)
T39 construct: purchased Eurofins Pharma Discovery Services UK Limited (contract assay service)
Source text: as §1

T26 sequence (Q02750 whole entry): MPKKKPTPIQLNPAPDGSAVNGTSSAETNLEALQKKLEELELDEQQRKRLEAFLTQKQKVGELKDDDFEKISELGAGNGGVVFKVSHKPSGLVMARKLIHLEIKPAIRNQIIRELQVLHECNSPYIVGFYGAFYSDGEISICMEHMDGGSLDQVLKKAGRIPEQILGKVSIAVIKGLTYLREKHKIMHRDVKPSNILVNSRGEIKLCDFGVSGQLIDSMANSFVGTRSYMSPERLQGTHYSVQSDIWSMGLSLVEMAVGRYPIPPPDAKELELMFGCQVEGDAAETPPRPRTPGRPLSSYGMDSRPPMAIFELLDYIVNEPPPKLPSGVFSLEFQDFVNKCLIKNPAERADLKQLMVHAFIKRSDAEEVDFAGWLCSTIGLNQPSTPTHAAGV
T1 sequence (Q92630 whole entry): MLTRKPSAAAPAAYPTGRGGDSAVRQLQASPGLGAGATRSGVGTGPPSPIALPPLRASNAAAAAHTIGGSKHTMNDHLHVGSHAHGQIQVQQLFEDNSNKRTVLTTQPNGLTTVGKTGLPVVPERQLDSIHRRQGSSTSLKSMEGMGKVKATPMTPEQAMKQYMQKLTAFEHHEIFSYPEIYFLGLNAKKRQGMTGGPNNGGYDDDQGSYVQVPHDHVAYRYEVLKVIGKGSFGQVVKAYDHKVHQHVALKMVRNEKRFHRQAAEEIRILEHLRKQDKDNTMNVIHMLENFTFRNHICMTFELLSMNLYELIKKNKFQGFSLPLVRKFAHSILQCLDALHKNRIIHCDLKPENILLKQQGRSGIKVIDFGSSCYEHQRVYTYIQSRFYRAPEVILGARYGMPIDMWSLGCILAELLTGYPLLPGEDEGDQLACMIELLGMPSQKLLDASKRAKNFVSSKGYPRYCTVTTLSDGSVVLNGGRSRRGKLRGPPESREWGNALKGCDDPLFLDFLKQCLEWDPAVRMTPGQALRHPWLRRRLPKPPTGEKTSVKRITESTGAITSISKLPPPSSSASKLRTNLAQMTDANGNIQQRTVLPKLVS
T7 sequence (O15530 whole entry): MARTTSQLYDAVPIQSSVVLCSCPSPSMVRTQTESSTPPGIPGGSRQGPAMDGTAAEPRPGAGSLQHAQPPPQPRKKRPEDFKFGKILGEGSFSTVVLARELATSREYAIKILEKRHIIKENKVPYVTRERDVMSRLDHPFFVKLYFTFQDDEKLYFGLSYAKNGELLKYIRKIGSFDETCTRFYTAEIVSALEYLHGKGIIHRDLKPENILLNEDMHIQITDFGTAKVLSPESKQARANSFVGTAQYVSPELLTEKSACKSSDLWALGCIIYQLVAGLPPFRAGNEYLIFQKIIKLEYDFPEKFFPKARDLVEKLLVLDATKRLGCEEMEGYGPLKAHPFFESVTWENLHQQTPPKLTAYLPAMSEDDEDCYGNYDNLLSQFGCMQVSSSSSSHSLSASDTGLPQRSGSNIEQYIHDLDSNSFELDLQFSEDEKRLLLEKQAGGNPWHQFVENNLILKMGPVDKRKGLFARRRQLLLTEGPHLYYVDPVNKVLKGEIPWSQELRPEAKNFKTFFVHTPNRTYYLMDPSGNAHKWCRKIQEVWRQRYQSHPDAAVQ
T34 sequence (P04049 whole entry): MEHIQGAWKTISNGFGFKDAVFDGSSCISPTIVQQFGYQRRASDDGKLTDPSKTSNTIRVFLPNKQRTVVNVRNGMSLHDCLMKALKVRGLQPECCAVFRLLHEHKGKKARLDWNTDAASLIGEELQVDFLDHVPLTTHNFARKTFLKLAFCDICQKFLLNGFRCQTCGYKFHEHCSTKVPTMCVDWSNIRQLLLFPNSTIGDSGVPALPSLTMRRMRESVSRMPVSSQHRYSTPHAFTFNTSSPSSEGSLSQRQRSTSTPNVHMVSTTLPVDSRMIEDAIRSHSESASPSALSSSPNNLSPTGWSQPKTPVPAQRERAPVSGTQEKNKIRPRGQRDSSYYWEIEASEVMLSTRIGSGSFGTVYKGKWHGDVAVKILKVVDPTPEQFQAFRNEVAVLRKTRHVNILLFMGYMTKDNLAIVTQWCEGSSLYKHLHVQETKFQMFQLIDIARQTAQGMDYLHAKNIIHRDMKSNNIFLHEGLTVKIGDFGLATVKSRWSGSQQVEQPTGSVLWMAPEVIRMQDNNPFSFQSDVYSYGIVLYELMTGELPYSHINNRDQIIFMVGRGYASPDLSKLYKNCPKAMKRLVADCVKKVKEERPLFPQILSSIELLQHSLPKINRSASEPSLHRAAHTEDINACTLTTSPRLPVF
T28 sequence (Q13464 whole entry): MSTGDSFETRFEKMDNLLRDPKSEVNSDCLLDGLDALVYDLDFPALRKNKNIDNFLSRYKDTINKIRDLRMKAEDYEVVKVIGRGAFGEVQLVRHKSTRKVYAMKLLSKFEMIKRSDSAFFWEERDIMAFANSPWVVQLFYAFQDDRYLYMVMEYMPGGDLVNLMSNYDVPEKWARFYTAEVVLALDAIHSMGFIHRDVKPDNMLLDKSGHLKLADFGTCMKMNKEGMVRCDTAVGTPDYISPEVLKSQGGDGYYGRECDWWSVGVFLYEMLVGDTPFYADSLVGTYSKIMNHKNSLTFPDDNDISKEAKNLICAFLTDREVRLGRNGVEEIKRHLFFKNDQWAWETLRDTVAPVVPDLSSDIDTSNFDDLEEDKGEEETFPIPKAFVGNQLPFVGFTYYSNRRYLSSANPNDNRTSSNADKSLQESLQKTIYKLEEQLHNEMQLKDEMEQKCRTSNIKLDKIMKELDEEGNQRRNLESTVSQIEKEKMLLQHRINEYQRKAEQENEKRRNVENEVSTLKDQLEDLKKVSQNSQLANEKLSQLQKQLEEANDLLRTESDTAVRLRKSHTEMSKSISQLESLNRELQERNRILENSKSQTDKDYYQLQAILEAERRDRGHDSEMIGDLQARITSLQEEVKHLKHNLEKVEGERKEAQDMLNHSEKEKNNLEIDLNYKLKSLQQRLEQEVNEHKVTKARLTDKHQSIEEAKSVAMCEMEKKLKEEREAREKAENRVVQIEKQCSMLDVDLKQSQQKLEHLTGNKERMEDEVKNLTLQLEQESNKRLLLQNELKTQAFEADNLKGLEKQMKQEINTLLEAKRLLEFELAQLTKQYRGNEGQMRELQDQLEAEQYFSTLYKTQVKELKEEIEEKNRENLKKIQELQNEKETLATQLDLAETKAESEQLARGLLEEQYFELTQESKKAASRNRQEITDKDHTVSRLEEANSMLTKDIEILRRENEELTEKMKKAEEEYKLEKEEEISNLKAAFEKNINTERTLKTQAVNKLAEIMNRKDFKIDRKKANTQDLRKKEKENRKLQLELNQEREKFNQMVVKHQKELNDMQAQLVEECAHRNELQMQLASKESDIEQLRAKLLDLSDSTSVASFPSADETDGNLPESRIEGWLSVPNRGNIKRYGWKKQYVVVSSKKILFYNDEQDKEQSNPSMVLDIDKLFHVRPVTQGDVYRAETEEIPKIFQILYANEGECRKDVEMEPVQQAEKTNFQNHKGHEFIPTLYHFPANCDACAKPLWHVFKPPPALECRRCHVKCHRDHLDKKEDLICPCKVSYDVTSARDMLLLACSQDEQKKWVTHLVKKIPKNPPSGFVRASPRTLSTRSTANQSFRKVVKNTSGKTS
T24 sequence (P50613 whole entry): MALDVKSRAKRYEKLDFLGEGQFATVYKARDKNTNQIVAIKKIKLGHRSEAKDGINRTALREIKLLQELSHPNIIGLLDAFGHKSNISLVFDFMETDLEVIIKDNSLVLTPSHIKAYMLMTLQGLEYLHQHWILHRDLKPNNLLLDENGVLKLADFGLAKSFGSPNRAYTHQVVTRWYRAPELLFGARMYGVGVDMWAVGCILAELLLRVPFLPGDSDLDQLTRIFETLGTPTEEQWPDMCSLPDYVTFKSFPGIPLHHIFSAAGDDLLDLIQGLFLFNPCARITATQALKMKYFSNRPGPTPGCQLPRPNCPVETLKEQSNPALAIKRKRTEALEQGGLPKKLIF
T24 sequence (P51946 whole entry partner): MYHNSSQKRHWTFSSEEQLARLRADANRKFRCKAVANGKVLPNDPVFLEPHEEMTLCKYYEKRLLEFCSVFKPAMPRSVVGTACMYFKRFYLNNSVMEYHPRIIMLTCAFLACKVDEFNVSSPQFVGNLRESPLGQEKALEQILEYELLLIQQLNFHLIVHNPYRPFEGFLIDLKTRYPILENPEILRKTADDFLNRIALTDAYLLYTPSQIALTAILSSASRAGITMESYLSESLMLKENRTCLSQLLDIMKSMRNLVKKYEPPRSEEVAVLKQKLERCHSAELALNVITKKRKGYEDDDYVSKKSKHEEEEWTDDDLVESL
T24 sequence (P51948 whole entry partner): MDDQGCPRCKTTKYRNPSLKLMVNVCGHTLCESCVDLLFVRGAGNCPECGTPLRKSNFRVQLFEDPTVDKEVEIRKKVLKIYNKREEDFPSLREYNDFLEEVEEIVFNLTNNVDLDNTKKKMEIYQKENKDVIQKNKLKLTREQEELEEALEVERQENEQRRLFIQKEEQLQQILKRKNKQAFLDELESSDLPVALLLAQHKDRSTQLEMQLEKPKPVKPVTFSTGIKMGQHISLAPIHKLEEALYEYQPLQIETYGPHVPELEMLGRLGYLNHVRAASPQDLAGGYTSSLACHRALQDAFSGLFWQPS
T8 sequence (P51955 whole entry): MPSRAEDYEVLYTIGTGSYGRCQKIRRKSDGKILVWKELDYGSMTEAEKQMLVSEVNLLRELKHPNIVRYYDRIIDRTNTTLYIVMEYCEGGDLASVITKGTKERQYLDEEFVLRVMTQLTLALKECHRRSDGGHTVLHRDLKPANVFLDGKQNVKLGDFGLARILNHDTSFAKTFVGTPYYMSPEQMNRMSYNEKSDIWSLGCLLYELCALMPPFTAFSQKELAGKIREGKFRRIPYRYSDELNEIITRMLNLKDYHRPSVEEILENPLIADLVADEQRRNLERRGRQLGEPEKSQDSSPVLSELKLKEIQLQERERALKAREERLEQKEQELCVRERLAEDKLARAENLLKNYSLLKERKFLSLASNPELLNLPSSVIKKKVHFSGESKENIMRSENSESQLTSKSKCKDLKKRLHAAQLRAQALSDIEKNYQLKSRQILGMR

Structure (SMILES): C=C(C)n1c(=O)n(C(C)=O)c2ncc(Br)cc21 [FD162]
- inhibition at 10 µM (DYRK2(h)): 1%
- inhibition at 10 µM (PI3KC2α(h)): 7%
- inhibition at 10 µM (Fyn(h)): 2%
- inhibition at 10 µM (CHK2(h)): 4%
- inhibition at 10 µM (Pim-1(h)): 3%
- inhibition at 10 µM (PKCβII(h)): 6%
- inhibition at 10 µM (PDK1(h)): -1%
- inhibition at 10 µM (NEK2(h)): -6%
- inhibition at 10 µM (PKD2(h)): 11%
- inhibition at 10 µM (PIP4K2α(h)): -2%
- inhibition at 10 µM (PDGFRβ(h)): -8%
- inhibition at 10 µM (CaMKI(h)): -1%
- inhibition at 10 µM (Ret(h)): 7%
- inhibition at 10 µM (CDK2/cyclinE(h)): 0%
- inhibition at 10 µM (Fms(h)): -9%
- inhibition at 10 µM (FAK(h)): 1%
- inhibition at 10 µM (cKit(h)): 7%
- inhibition at 10 µM (PKCδ(h)): 18%
- inhibition at 10 µM (CSK(h)): -12%
- inhibition at 10 µM (Blk(h)): -5%
- inhibition at 10 µM [1]: 3%
- inhibition at 10 µM (PI3Kinase(p120γ)(h)): 2%
- inhibition at 10 µM (CK2(h)): 15%
- inhibition at 10 µM (CDK7/cyclinH/MAT1(h)): -8%
- inhibition at 10 µM (Rsk1(h)): 9%
- inhibition at 10 µM (MEK1(h)): -2%
- inhibition at 10 µM (IGF-1R(h), activated): 0%
- inhibition at 10 µM (ROCK-I(h)): -4%
- inhibition at 10 µM (PI3KC2γ(h)): 3%
- inhibition at 10 µM (PI3Kinase(p110α/p85α)(h)): -1%
- inhibition at 10 µM (PKCι(h)): 11%
- inhibition at 10 µM (CDK2/cyclinA(h)): -2%
- inhibition at 10 µM (CHK1(h)): -14%
- inhibition at 10 µM (c-RAF(h)): -3%
- inhibition at 10 µM (Lck(h)activated): -1%
- inhibition at 10 µM (EGFR(h)): 0%
- inhibition at 10 µM (Rsk3(h)): 2%
- inhibition at 10 µM (B-Raf(V599E)(h)): -1%
- inhibition at 10 µM (CDK6/cyclinD3(h)): -1%
